Test results published in US12509451B2, “Heteroaryl amide inhibitors of CD38” (NAPA THERAPEUTICS LTD., priority 2020, dated 2025).

Key:
[1] = biological target: T1, CD38 NAD+ hydrolase activity in NH7-dCas9 cells (Jurkat clone) (Homo sapiens, UniProt P28907); test: Fluorescence-based NAD+ hydrolase activity assay with human T cell line NH7-dCas9 cells-Jurkat clone (Assay 1); settings: read-out: Assay 1 Arithmetic mean IC50
T1 construct: The assay utilized CD38 expressing NH7-dCas9 cells (Jurkat clone); host or cells: NH7-dCas9 cells (Jurkat clone)
T1 sequence (P28907 1-300): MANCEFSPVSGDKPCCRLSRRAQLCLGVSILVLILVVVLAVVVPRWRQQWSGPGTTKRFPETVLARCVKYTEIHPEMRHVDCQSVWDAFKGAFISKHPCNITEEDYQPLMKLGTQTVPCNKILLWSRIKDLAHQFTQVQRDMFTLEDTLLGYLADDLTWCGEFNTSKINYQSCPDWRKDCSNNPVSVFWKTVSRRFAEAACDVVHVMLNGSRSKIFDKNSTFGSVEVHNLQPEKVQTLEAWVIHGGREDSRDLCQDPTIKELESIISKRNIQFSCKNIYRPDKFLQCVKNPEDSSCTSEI
Method: For the modified assay, the performance validation criteria of the assay as a High Throughput Screening (HTS): Z-factor within the plate was greater than 0.89 (optimal HTS z-factor >0.5) and the Intra-plate, inter-plate and day to day variability (CV) was less than 20%.
NAD+ hydrolase activity of a human T cell line treated with test compounds was measured using a fluorescence-based assay. NH7-dCas9 cells (Jurkat clone) were provided by the Weissman Lab (UCSF 1700 4th St., Byers Hall, Room 403B, San Francisco, CA 94158-2330). Briefly, cells were centrifuged, resuspended in 44 μl PBS/10^6 cells and plated in a 96 well black plate (CORNING) at a density of 1×10^6 per well.
(§1) Each test compound was received in a powder state and dissolved in DMSO as a 25 mM stock solution. Each test compound was serially diluted in order to generate a dose-response curve. The dilution series of each test compound in DMSO was prepared at 50 times the concentrations to be assayed. Each test compound was diluted to generate a 5-fold dilution series of 8 concentrations from 20 μM to 0.256 nM in order to assay 8 final concentrations ranging from 400 nM to 25.6 pM. One μl of the 50× concentration compound series was added to each well of the plate containing 1×10^6 cells in PBS.
Each plate had the following intra plate controls: 3 wells containing cells treated with vehicle only (DMSO), 3 wells of cells treated with the reference compound 78c at a final concentration of 50 nM and 2 wells containing only PBS (used as a background value).
The reaction was started by adding nicotinamide 1,N^6-etheno-adenine dinucleotide (Sigma Aldrich) to reach a final concentration of 80 µM. The samples were excited at 321-15 nm, and the emission of fluorescence was measured at 410-20 nm at 37° C. every minute for 1 hr in a Clariostar® microplate reader (BMG LABTECH). NAD+ hydrolase activity was calculated as the slope of the linear portion of the fluorescence-time curve using the MARS data analysis software (BMG LABTECH). The data were uploaded in the Collaborative Drug Design (CDD) Software and for each compound the IC50 was calculated by the software. Each compound was tested in 3 independent experiments on 3 separate days to establish the reproducibility of the results. For each plate, the z-factor was also calculated as a plate quality using the CDD software.

[2] = biological target: T2, recombinant human CD38 Protein (Homo sapiens, UniProt P28907); test: Fluorescence-based NAD+ cyclase activity assay with human recombinant CD38 protein (Assay 2); type: biochemical; settings: read-out: Assay 2 Arithmetic mean IC50
T2 construct: purchased R&D System
T2 sequence (P28907 1-300): T1 sequence (P28907 1-300)
Method: This protocol was modified from the de Oliveira et al., 2018 reference, supra.
NAD+ cyclase activity of the human recombinant CD38 protein treated with test compounds was measured using a fluorescence-based assay. Briefly, recombinant human CD38 Protein (R&D System) was resuspended in 44 μl/well of Sucrose-Tris Buffer (Sucrose 0.25 M, Tris pH 7.4 40 mM) and plated in a 96-well black plate (CORNING) at a density of 125 ng/well.
as §1, with “100” for “20”, “32” for “0.256”, “2 μM” for “400 nM”, “0.64 nM.” for “25.6 pM.”, “125 ng of protein” for “1×10^6 cells”, “Sucrose-Tris buffer.” for “PBS.”
The reaction was started adding nicotinamide guanine dinucleotide (NGD+) (Sigma Aldrich) to reach a final concentration of 150 µM. The samples were excited at 337-15 nm, and the emission of fluorescence was measured at 442-20 nm at 37° C. every minute for 1 hr in a Clariostar microplate reader (BMG LABTECH). NAD+ cyclase activity was calculated as the slope of the linear portion of the fluorescence-time curve using the MARS data analysis software (BMG LABTECH). The data were uploaded in the Collaborative Drug Design (CDD) Software, and for each compound the IC50 was calculated by the software. For each plate, the z-factor was also calculated as a plate quality using the CDD software.

IC50 [1] [nM]	IC50 [2] [nM]	SMILES
1 to 50	51 to 1000	COc1cc(NC(=O)c2cccc(-n3ccnc3)n2)ccn1 [Compound 12]
< 1	51 to 1000	COCCOc1cc(C(=O)Nc2ccnc(C(F)(F)F)c2)nc(-n2ccnc2)c1 [Compound 31, 6-(1H-imidazol-1-yl)-4-(2-methoxyethoxy)-N-(2-(trifluoromethyl)pyridin-4-yl)picolinamide]
1 to 50	51 to 1000	COc1cc(C(=O)Nc2cccnc2)nc(-n2ccnc2)c1 [Compound 36]

Second part, the compound before the results:

SMILES	IC50 [1] [nM]	IC50 [2] [nM]
COCCOc1cc(C(=O)Nc2ccnc(C(F)(F)F)c2)nc(-n2ccnc2)n1 [Compound 39, 2-(1H-imidazol-1-yl)-6-(2-methoxyethoxy)-N-(2-(trifluoromethyl)pyridin-4-yl)pyrimidine-4-carboxamide]	< 1	1 to 50
Cc1cc(C(=O)Nc2ccncc2)nc(-n2ccnc2)n1 [Compound 50]	< 1	1 to 50
O=C(Nc1ccnc(F)c1)c1cccc(-n2ccnc2)n1 [Compound 8]	< 1	51 to 1000
